# Test results taken from US11104690B2, “Indazole derivatives useful as inhibitors of diacylglyceride O-acyltransferase 2” (Merck Sharp & Dohme Corp., priority 2016, dated 2021).
# Biological target: Human DGAT2 (Homo sapiens (Human), UniProt Q96PD7)
# Experiment: DGAT2 Enzymatic Activity Assay (triolein formation, LC/MS/MS)
# Type: biochemical
# Conditions: hDGAT2 Sf-9 membrane prep; 25 μM diolein, 10 μM oleoyl-CoA; room temperature
# Summary of the method: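 Triolein product, measured by LC/MS/MS as a ratio to internal standard, gave % inhibition and 4-parameter IC50. Reaction: 25 μM diolein, 10 μM oleoyl-CoA, 10 ng/μL hDGAT2 Sf-9 membrane, 100 mM Tris.Cl pH 7.0, 20 mM MgCl2, 5% ethanol, room temperature.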
# Sequence of Human DGAT2 (Q96PD7 whole entry): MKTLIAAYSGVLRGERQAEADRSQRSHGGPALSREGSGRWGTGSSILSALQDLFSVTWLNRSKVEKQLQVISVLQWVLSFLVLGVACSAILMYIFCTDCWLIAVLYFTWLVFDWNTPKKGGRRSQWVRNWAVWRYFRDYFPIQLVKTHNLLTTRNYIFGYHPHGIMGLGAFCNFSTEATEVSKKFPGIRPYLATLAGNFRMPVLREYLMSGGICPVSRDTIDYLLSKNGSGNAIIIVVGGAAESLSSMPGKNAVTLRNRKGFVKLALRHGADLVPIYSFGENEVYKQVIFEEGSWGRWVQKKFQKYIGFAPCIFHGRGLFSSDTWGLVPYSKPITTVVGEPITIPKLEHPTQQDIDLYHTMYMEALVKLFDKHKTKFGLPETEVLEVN
row,IC50 [nM],Compound
1,311,"CC1(NC(=O)c2ccc3c(-c4cccc(C(C)(C)O)c4)nn(-c4ccc(F)cc4)c3c2)CCS(=O)(=O)C1 (racemic) [Example 150, 1-(4-fluorophenyl)-3-[3-(1-hydroxy-1-methylethyl)phenyl]-N-(3-methyl-1,1-dioxidotetrahydrothiophen-3-yl)-1H-indazole-6-carboxamide]"
2,383,"O=C(NC1CCS(=O)(=O)C1)c1ccc2c(-c3ccccc3Cl)nn(Cc3ccccc3)c2c1 (racemic) [Example 167, (±)-1-Benzyl-3-(2-chlorophenyl-N-(1,1-dioxidotetrahydrothiophen-3-yl)-1-indazole-6-carboxamide]"
3,4.2,"CC1(NC(=O)c2ccc3c(-c4cccc(C5CC5)c4)nn(-c4ccc(F)cn4)c3c2)CCS(=O)(=O)C1 (single isomer, unassigned) [Example 125-A, 3-(3-cyclopropylphenyl)-1-(5-fluoropyridin-2-yl)-N-(3-methyl-1,1-dioxidotetrahydrothiophen-3-yl)-1H-indazole-6-carboxamide]"
4,519,"Cc1nc(C(C)NC(=O)c2ccc3c(-c4ccccc4Cl)nn(-c4ccc(F)cc4)c3c2)no1 (racemic) [Example 41, 3-(2-chlorophenyl)-1-(4-fluorophenyl)-N-[1-(5-methyl-1,2,4-oxadiazol-3-yl)ethyl]-1H-indazole-6-carboxamide]"
5,424,"COCCNC(=O)c1ccc2c(-c3ccccc3Cl)nn(-c3ccc(F)cc3)c2c1 [Example 45, 3-(2-chlorophenyl)-1-(4-fluorophenyl)-N-(2-methoxyethyl)-1H-indazole-6-carboxamide]"
6,41,"CC(O)CC(C)(C)NC(=O)c1ccc2c(-c3ccccc3Cl)nn(-c3ccc(F)cc3)c2c1 (racemic) [Example 113, 3-(2-chlorophenyl)-1-(4-fluorophenyl)-N-(3-hydroxy-1,1-dimethylbutyl)-1H-indazole-6-carboxamide]"
7,455,"O=C(NC1CCS(=O)(=O)C1)c1ccc2c(-c3ccccc3Cl)nn(Cc3ccc(Cl)cc3)c2c1 (stereo not shown) [Example 168, 1-(4-chlorobenzyl)-3-(2-chlorophenyl)-N-(1,1-dioxidotetrahydrothiophen-3-yl)-1H-indazole-6-carboxamide]"
8,61,"CC1(NC(=O)c2ccc3c(-c4cc(Cl)cc(Cl)c4)nn(-c4ccc(F)cc4)c3c2)CCS(=O)(=O)C1 (single isomer, unassigned) [Example 157-A, 3-(3,5-dichlorophenyl)-1-(4-fluorophenyl)-N-(3-methyl-1,1-dioxidotetrahydrothiophen-3-yl)-1H-indazole-6-carboxamide]"
9,221,"O=C(NCc1cnoc1)c1ccc2c(-c3ccccc3Cl)nn(-c3ccc(F)cc3)c2c1 [Example 37, 3-(2-chlorophenyl)-1-(4-fluorophenyl)-N-(isoxazol-4-ylmethyl)-1H-indazole-6-carboxamide]"
10,403,"O=C(c1ccc2c(-c3ccccc3Cl)nn(-c3ccc(F)cc3)c2c1)N1CC2CC1CS(=O)(=O)C2 (racemic) [Example 23, 3-(2-chlorophenyl)-6-[(3,3-dioxido-3-thia-6-azabicyclo[3.2.1]oct-6-yl)carbonyl]-1-(4-fluorophenyl)-1H-indazole]"
11,67,"C[C@@H](NC(=O)c1ccc2c(-c3ccccc3Cl)nn(-c3ccc(F)cc3)c2c1)c1cnc(C(F)(F)F)nc1 [Example 4, 3-(2-chlorophenyl)-1-(4-fluorophenyl)-N-{(1R)-1-[2-(trifluoromethyl)pyrimidin-5-yl]ethyl}-1H-indazole-6-carboxamide]"
12,38,"C[C@@H](NC(=O)c1ccc2c(-c3ccccc3Cl)nn(-c3ccc(F)cc3)c2c1)c1ccc(C(F)(F)F)nc1 [Example 11, 3-(2-chlorophenyl)-1-(4-fluorophenyl)-N-{(1R)-1-[6-(trifluoromethyl)pyridin-3-yl]ethyl}-1H-indazole-6-carboxamide]"
13,73,"O=C(NC1(CO)CC1)c1ccc2c(-c3ccccc3Cl)nn(-c3ccc(F)cc3)c2c1 [Example 61, 3-(2-chlorophenyl)-1-(4-fluorophenyl)-N-[1-(hydroxymethyl)cyclopropyl]-1H-indazole-6-carboxamide]"
14,134,"O=C(N[C@H](CO)Cc1ccccc1)c1ccc2c(-c3ccccc3Cl)nn(-c3ccc(F)cc3)c2c1 [Example 110, N-[(1S)-1-benzyl-2-hydroxyethyl]-3-(2-chlorophenyl)-1-(4-fluorophenyl)-1H-indazole-6-carboxamide]"
15,393,"O=C(NC1(c2ccc(Br)cc2)CC(O)C1)c1ccc2c(-c3ccccc3Cl)nn(-c3ccc(F)cc3)c2c1 (stereo not shown) [Example 108, N-[1-(4-bromophenyl)-3-hydroxycyclobutyl]-3-(2-chlorophenyl)-1-(4-fluorophenyl)-1H-indazole-6-carboxamide]"
16,5.7,"CC1(NC(=O)c2ccc3c(-c4cccc(OCC(F)(F)F)c4)nn(-c4ccc(F)cc4)c3c2)CCS(=O)(=O)C1 (single isomer, unassigned) [Example 147-A, 1-(4-fluorophenyl)-N-(3-methyl-1,1-dioxidotetrahydrothiophen-3-yl)-3-[3-(2,2,2-trifluoroethoxy)phenyl]-1H-indazole-6-carboxamide]"
17,170,"CCC(CO)NC(=O)c1ccc2c(-c3ccccc3Cl)nn(-c3ccc(F)cc3)c2c1 (racemic) [Example 65, 3-(2-chlorophenyl)-1-(4-fluorophenyl)-N-[1-(hydroxyinethyl)propyl]-1H-indazole-6-carboxamide]"
18,3.6,"O=C(NC1CCS(=O)(=O)C1)c1ccc2c(-c3cccc(Cl)c3Cl)nn(-c3ccc(F)cc3)c2c1 (single isomer, unassigned) [Example 130-A, 3-(2,3-dichlorophenyl)-N-(1,1-dioxidotetrahydro-thiophen-3-yl)-1-(4-fluorophenyl)-1H-indazole-6-carboxamide]"
19,772,"O=C(N[C@@H]1CCC[C@H]1O)c1ccc2c(-c3ccccc3Cl)nn(-c3ccc(F)cc3)c2c1 [Example 94, 3-(2-chlorophenyl)-1-(4-fluorophenyl)-N-[(1R,2R)-2-hydroxycyclopentyl]-1H-indazole-6-carboxamide]"
20,15,"CC1(NC(=O)c2ccc3c(-c4ccccc4Cl)nn(-c4ccc(Cl)cn4)c3c2)CCS(=O)(=O)C1 (single isomer, unassigned) [Example 171-A, 3-(2-Chlorophenyl)-1-(5-chloropyridin-2-yl)-N-(3-methyl-1,1-dioxidotetrahydrothiophen-3-yl)-1H-indazole-6-carboxamide]"
21,45,"CC1(NC(=O)c2ccc3c(-c4ccccc4Cl)nn(-c4nnc(C5CC5)s4)c3c2)CCS(=O)(=O)C1 (racemic) [Example 190, 3-(2-chlorophenyl)-1-(5-cyclopropyl-1,3,4-thiadiazol-2-yl)-N-(3-methyl-1,1-dioxidotetrahydrothiophen-3-yl)-1H-indazole-6-carboxamide]"
22,17,"CC1(NC(=O)c2ccc3c(-c4cccnc4F)nn(-c4ccc(F)cc4)c3c2)CCS(=O)(=O)C1 (single isomer, unassigned) [Example 154-A, 1-(4-fluorophenyl)-3-(2-fluoropyridin-3-yl)-N-(3-methyl-1,1-dioxidotetrahydrothiophen-3-yl)-1H-indazole-6-carboxamide]"
